Measurements taken from US8466163B2 (Bionomics Limited, priority 2006, dated 2013).

Experiments:
tubulin = assay: Tubulin polymerisation inhibitor (TPI) assay; format: biochemical; conditions: concentration required to inhibit the extent of tubulin polymerisation by 50%
[1] = test system: Activated human umbilical vein endothelial cells (HUVECs); assay: Inhibition of proliferation of activated HUVEC cells; format: cell-based; conditions: concentration required to inhibit proliferation by 50%, value falls within the range of concentrations given or >1000 nM

| IC50 (tubulin) [nM] | Compound | IC50 ([1]; Homo sapiens, HUVEC) [nM] | IC50 [1] [nM] |
| --- | --- | --- | --- |
| > 40000 | COc1ccc(-c2sc3nc(SC)ncc3c2C(=O)c2cc(OC)c(OC)c(OC)c2)cc1 [Example 18, 2-Thiomethoxy-6-(4-methoxyphenyl)-5-(3,4,5-trimethoxybenzoyl)-thiopheno [2,3-d]pyrimidine] |  |  |
|  | COc1cc(-c2c(-c3ccc4c(ccn4C)c3)oc3[nH]c(=O)ncc23)cc(OC)c1OC [Example 4, 6-(1-Methyl-1H-indol-5-yl)-5-(3,4,5-trimethoxy-phenyl)-1H-furo[2,3-d]pyrimidin-2-one] | 1 to 10 |  |
| 10000 to 40000 | COc1ccc(-c2oc3nc(Cl)ncc3c2-c2cc(OC)c(OC)c(OC)c2)cc1 [Example 16, 2-Chloro-6-(4-methoxyphenyl)-5-(3,4,5-trimethoxy-phenyl)-furo[2,3-d]pyrimidine] |  |  |
| < 4000 | COc1ccc(-c2oc3nc(OC)cnc3c2C(=O)c2cc(OC)c(OC)c(OC)c2)cc1 [Example 25, 3-methoxy-6-(4-methoxyphenyl)-7-(3,4,5-trimethoxybenzoyl)furo[2,3-b]pyrazine] | 10 to 100 |  |
|  | COc1ccc(-c2oc3[nH]c(=O)ncc3c2-c2cc(OC)c(OC)c(OC)c2)cn1 [Example 5, 6-(6-methoxypyridin-3-yl)-5-(3,4,5-trimethoxyphenyl)furo[2,3-d]pyrimidin-2(1H)-one] | 100 to 1000 |  |
| 4000 to 10000 | COc1ccc(-c2c(-c3cc(OC)c(OC)c(OC)c3)oc3[nH]c(=O)ncc23)cc1 [Example 2, 6-(2-(3,4,5-trimethoxyphenyl))-5-(4-methoxyphenyl)furo[2,3-d]pyrimidin-2(1H)-one] | 100 to 1000 |  |
|  | COc1ccc(-c2oc3[nH]c(=O)ccc3c2-c2cc(OC)c(OC)c(OC)c2)cc1 [Example 26, 2-(4-Methoxyphenyl)-3-(3,4,5-trimethoxyphenyl)furo[2,3-b]pyridin-6-one] | 100 to 1000 |  |
| 2000 | COc1ccc(-c2oc3[nH]c(=O)ncc3c2-c2cc(OC)c(OC)c(OC)c2)cc1 [Example 1] | 10 to 100 |  |
|  | COc1ccc(-c2oc3[nH]c(=O)ncc3c2-c2cc(OC)c(OC)c(OC)c2)c(O)c1O [Example 8, 6-(2,3-Dihydroxy-4-methoxy-phenyl)-5-(3,4,5-trimethoxy-phenyl)-1H-furo[2,3-d]pyrimidin-2-one] | > 1000 |  |
|  | COc1ccc(-c2oc3nc(OC)ncc3c2C(=O)c2cc(OC)c(OC)c(OC)c2)cc1 [Example 27] | 100 to 1000 |  |
| > 40000 | COc1ccc(-c2oc3[nH]c(=O)ncc3c2C(=O)c2cc(OC)c(OC)c(OC)c2)cc1 [Example 13] |  |  |
| > 40000 | COc1ccc(-c2oc3c(cnc(=O)n3C)c2C(=O)c2cc(OC)c(OC)c(OC)c2)cc1 [Example 15] |  |  |
|  | COc1ccc(-c2oc3[nH]c(=O)ncc3c2-c2cc(OC)c(OC)c(OC)c2)cc1O [Example 7, 6-(3-Hydroxy-4-methoxy-phenyl)-5-(3,4,5-trimethoxy-phenyl)-1H-furo[2,3-d]pyrimidinone] | 10 to 100 |  |
|  | COc1ccc(-c2oc3c(Br)c(OC)cnc3c2C(=O)c2cc(OC)c(OC)c(OC)c2)cc1 [Example 28, 7-Bromo-6-methoxy-2-(4-methoxyphenyl)-3-(3,4,5-trimethoxybenzoyl)-furo[3,2-b]pyridine] | 100 to 1000 |  |
| < 4000 | COc1ccc(-c2oc3cc(OC)ncc3c2C(=O)c2cc(OC)c(OC)c(OC)c2)cc1 [Example 24, 6-methoxy-2-(4-methoxyphenyl)-3-(3,4,5-trimethoxybenzoyl)furo[3,2-c]pyridine] | 100 to 1000 |  |
|  | 6-(3-amino-4-methoxyphenyl)-5-(3-hydroxy-4,5-dimethoxyphenyl)furo[2,3-d]pyrimidin-2(1H)-one hydrochloride [Example 10] |  | > 1000 |
|  | COc1cc(C(=O)c2c(-c3cnn(C)c3)oc3c(=O)c(OC)c[nH]c23)cc(OC)c1OC [Example 30, 6-Methoxy-2-(1-methyl-1H-pyrazol-4-yl)-3-(3,4,5-trimethoxybenzoyl)-4H-furo[3,2-b]pyridin-7-one] | > 1000 |  |
|  | COc1cc(-c2c(-c3ccco3)oc3[nH]c(=O)ncc23)cc(OC)c1OC [Example 3, 6-(2-furyl)-5-(3,4,5-trimethoxyphenyl)furo[2,3-d]pyrimidin-2(11)-one] | > 1000 |  |
| ~2000 | COc1ccc(-c2oc3nc(OC)ccc3c2C(=O)c2cc(OC)c(OC)c(OC)c2)cc1 [Example 20, 6-methoxy-2-(4-methoxyphenyl)-3-(3,4,5-trimethoxybenzoyl)furo[2,3-b]pyridine] | 100 to 1000 |  |
| > 40000 | COc1ccc(-c2oc3nc(OC)ccc3c2-c2cc(OC)c(OC)c(OC)c2)cc1 [Example 21, 6-methoxy-2-(4-methoxyphenyl)-3-(3,4,5-trimethoxyphenyl)furo[2,3-b]pyridine] |  |  |
| < 4000 | COc1ccc(-c2oc3cc(OC)cnc3c2C(=O)c2cc(OC)c(OC)c(OC)c2)cc1 [Example 22, 6-methoxy-2-(4-methoxyphenyl)-3-(3,4,5-trimethoxybenzoyl)furo [3,2-b]pyridine] | 100 to 1000 |  |

| Compound | IC50 (tubulin) [nM] | IC50 ([1]; Homo sapiens, HUVEC) [nM] | IC50 [1] [nM] |
| --- | --- | --- | --- |
| COc1ccc(-c2oc3nc(OC)ncc3c2-c2cc(OC)c(OC)c(OC)c2)cc1 [Example 17, 2-Methoxy-6-(4-methoxyphenyl)-5-(3,4,5-trimethoxyphenyl)-furo[2,3-d]pyrimidine] | > 40000 |  |  |
| COc1ccc(-c2oc3cc(OC)cnc3c2-c2cc(OC)c(OC)c(OC)c2)cc1 [Example 23, 6-methoxy-2-(4-methoxyphenyl)-3-(3,4,5-trimethoxyphenyl)furo[3,2-b]pyridine] | ~10000 | > 1000 |  |
| COc1ccc(-c2sc3nc(OC)ncc3c2C(=O)c2cc(OC)c(OC)c(OC)c2)cc1 [Example 19, 2-Methoxy-6-(4-methoxyphenyl)-5-(3,4,5-trimethoxybenzoyl)-thiopheno[2,3-d]pyrimidine] | > 40000 | > 1000 |  |
